The numbers were not newly measured in patent publication US20070253995A1, “Drug Delivery Methods and Devices for Treating Stress Urinary Incontinence” (Medtronic, Inc., priority 2006, published 2007), which cites them from elsewhere.

For this series, the system named is women with stress urinary incontinence. Particulars: oral formulation.

As to `CNCC[C@H](Oc1cccc2ccccc12)c1cccs1` [duloxetine], the “time for side effects to disappear after therapy initiation” value is listed as 1 to 4 weeks. For the same molecule, where the note is “Phase III clinical trial, women”, the “efficacy in treating stress urinary incontinence” value is on record as “effective”. Moreover, for the setting “some patients”, the “side effects (mostly centrally mediated: nausea, headache, insomnia, dry mouth, dizziness, fatigue)” value is given as “significant side effects in some patients”.
